{"source": "patent US20240158430A1", "about": "“NOVEL COMPOUND OR SALT THEREOF, AND ANTITUMOR ACTIVATOR CONTAINING SAME AS ACTIVE INGREDIENT” (AKITA UNIVERSITY, priority 2021, published 2024)", "key": {"[1]": {"tested_on": "breast cancer cell line HCC1395", "experiment": "Cell growth inhibitory activity, HCC1395", "type": "cell-based", "protocol": "[The source words this procedure for another cell line and reports this cell line under the same test.] (§1) The cell growth inhibitory activity against a colorectal cancer cell line HCT116 was measured. As an index of cell growth inhibitory activity, a concentration at which cell growth was inhibited by 50% as compared with a control (IC50) was used. The method is as follows. HCT116 was added to a 6-well plate by 5×10^4, compounds having various concentrations were added after 24 hours, and the number of cells was counted after 72 hours of culture. As the control, DMSO was used in an amount equal to the amount added in accordance with the addition concentration of the highest-concentration compound. The number of cells at each concentration relative to the control was expressed as a percentage.\n(§2) The method is as described above."}, "[2]": {"tested_on": "gastric cancer cell line SH-10-TC", "experiment": "Cell growth inhibitory activity, SH-10-TC", "type": "cell-based", "protocol": "[The source words this procedure for another cell line and reports this cell line under the same test.] as §1, §2"}, "[3]": {"tested_on": "gastric cancer cell line GCIY", "experiment": "Cell growth inhibitory activity, GCIY", "type": "cell-based", "protocol": "[The source words this procedure for another cell line and reports this cell line under the same test.] as §1, §2"}, "[4]": {"tested_on": "colorectal cancer cell line DLD-1", "experiment": "Cell growth inhibitory activity, DLD-1", "type": "cell-based", "protocol": "as §1, §2\n(§3) The cell growth inhibitory activity (IC50) of each of curcumin, GO-Y199, and GO-Y206 against the colorectal cancer cell lines DLD-1 and HCT116 and the gastric cancer cell lines KATO III and H-111-TC was measured. The method is as described above."}, "[5]": {"tested_on": "gastric cancer cell line H-111-TC", "experiment": "Cell growth inhibitory activity, H-111-TC", "type": "cell-based", "settings": "Table 6", "protocol": "as §1, with “percentage. In Table 3, the turbidities of the compounds are also indicated.” for “percentage.”\nas §3, with “above. FIG. 8 indicates the results of cell growth inhibitory activity of these compounds against various cancer cell lines.” for “above.”"}, "[6]": {"tested_on": "malignant pleural mesothelioma cell line MSTO211H", "experiment": "Cell growth inhibitory activity, MSTO211H", "type": "cell-based", "settings": "Table 8", "protocol": "as §1, with “percentage. In Table 3, the turbidities of the compounds are also indicated.” for “percentage.”\nGO-Y198, GO-Y199, and GO-Y200 against malignant pleural mesothelioma cell lines NCI-H226 and MSTO211H was measured. The method is as described above. For comparison, the IC50 of cisplatin (CDDP), a cytocidal anticancer agent, is also indicated."}, "[7]": {"tested_on": "malignant melanoma cell line G361", "experiment": "Cell growth inhibitory activity, G361", "type": "cell-based", "settings": "Table 9", "protocol": "[The source words this procedure for another cell line and reports this cell line under the same test.] as §1, §2"}, "[8]": {"tested_on": "cutaneous T-cell lymphoma cell line HUT78", "experiment": "Cell growth inhibitory activity, HUT78", "type": "cell-based", "settings": "Table 10", "protocol": "[The source words this procedure for another cell line and reports this cell line under the same test.] as §1, §2"}, "NF-kB (p65)": {"tested_on": "NF-kB (p65)", "experiment": "Influence on NF-kB, immunohistochemistry in HCT116", "type": "cell-based", "settings": "2 μM, 24 hours, control 96.8±1.1%", "protocol": "(§4) The influence of GO-Y199 on NF-kB (p65) was investigated. The method is as follows. 3×10^6 cells of the HCT116 cell line were added to a 10-cm plate, 2 μM of GO-Y199 was added after 24 hours, the cells were collected after 24 hours, embedded in iPGell (GenOStaff), and fixed in formalin, paraffin blocks were then prepared, and immuno-histochemistry was performed with an anti-NF-kB (p65) antibody. In addition, 2 μM and 5 μM of GO-Y199 were added, lysates were collected after 24 hours, and an expression level of NF-kB (p65) was analyzed using an ELISA-plate (NF-kBp65 (pS536) SimpleStep-ELISA-kit, Abcam). An amount of protein was corrected by the absorbance of A 280 nm. The upper part of FIG. 14 indicates photographs of the control group and the GO-Y199 (2 μM)-added group after 24 hours. The lower part of FIG. 14 indicates results of the t-test of these groups after 24 hours. FIG. 15 indicates the comparison results of the NF-kB inhibitory effect of GO-Y199 (2 μM, 5 μM)-added groups with respect to the control group."}, "fatty acid synthetase": {"tested_on": "fatty acid synthetase", "experiment": "Influence on fatty acid synthetase, ELISA", "type": "cell-based, Human", "settings": "4 μM vs control group", "protocol": "as §4\nThe influence of GO-Y199 on fatty acid synthetase was investigated. The method is as described above. Protein quantification was performed using a Human Fatty acid synthase ELISA Kit (MyBioSource). FIG. 19 indicates the comparison result of the fatty acid synthetase inhibitory effect of the GO-Y199 (4 μM)-added group with respect to the control group."}, "Caspase 3": {"tested_on": "Caspase 3", "experiment": "Influence on Caspase 3, immunohistochemistry", "type": "cell-based", "settings": "2 μM; 24 hours; control 1.0±0.1%", "protocol": "as §4\nThe influence of GO-Y199 on Caspase 3 was investigated. The method is as described above. Immunohistochemistry was performed with an anti-Caspase 3 antibody. Quantification of apoptosis-related protein was performed using M30 Apotosense ELISA (PEVIVA). The upper part of FIG. 20 indicates photographs of the control group and the GO-Y199 (2 μM)-added group after 24 hours. […]"}, "[9]": {"experiment": "Blood concentration after intravenous injection", "type": "in vivo, BALB/cSlc-nu/+ mice", "settings": "mouse, 1 mg tail vein", "protocol": "The blood concentration of GO-Y199 after intravenous injection was investigated. The method is as follows. To BALB/cSlc-nu/+ mice, the equivalent of 1 mg of GO-Y199 was injected into the tail vein as described above, blood was collected from the orbital vein over time, and the serum was subjected to HPLC to measure the blood concentration of GO-Y199. FIG. 27 indicates results of HPLC analysis of blood after intravenous injection. FIG. 28 indicates results of changes over time in the blood concentration of GO-Y199 after intravenous injection."}}, "note": "Read-outs that look alike come from different tables or passages of the source."}
{"smiles": "COCOc1cc(/C=C/C(=O)CC(SCCOCCOCCOCCOCc2cn([C@@H]3O[C@H](CO)[C@@H](O[C@@H]4O[C@H](CO)[C@H](O)[C@H](O)[C@H]4O)[C@H](O)[C@H]3O)nn2)c2cc(OCOC)cc(OCOC)c2)cc(OCOC)c1", "note": "(stereo partly shown) [GO-Y199]", "values": [{"measurement": "IC50", "setting": "[1]; Table 4, 72 hours", "value": 720, "unit": "nM"}, {"measurement": "GO-Y199 vs GO-Y030 (IC50 comparison), HCC1395", "setting": "[1]; Table 5, ratio of IC50", "value": 0.34}, {"measurement": "IC50", "setting": "[2]; Table 4, 72 hours", "value": 1000, "unit": "nM"}, {"measurement": "GO-Y199 vs GO-Y030 (IC50 comparison), SH-10-TC", "setting": "[2]; Table 5, ratio of IC50", "value": 0.65}, {"measurement": "GO-Y199 vs curcumin (IC50 comparison), SH-10-TC", "setting": "[2]; Table 5, ratio of IC50", "value": 0.124}, {"measurement": "IC50", "setting": "[3]; Table 4, 72 hours", "value": 160, "unit": "nM"}, {"measurement": "GO-Y199 vs GO-Y030 (IC50 comparison), GCIY", "setting": "[3]; Table 5, ratio of IC50", "value": 1.24}, {"measurement": "GO-Y199 vs curcumin (IC50 comparison), GCIY", "setting": "[3]; Table 5, ratio of IC50", "value": 0.03}, {"measurement": "IC50", "setting": "[4]; Table 4, 72 hours, read-out: IC50 DLD-1", "value": 0.26, "unit": "µM"}, {"measurement": "GO-Y199 vs GO-Y030 (IC50 comparison), DLD-1", "setting": "[4]; Table 5, ratio of IC50", "value": 0.36}, {"measurement": "GO-Y199 vs curcumin (IC50 comparison), DLD-1", "setting": "[4]; Table 5, ratio of IC50", "value": 0.014}, {"measurement": "IC50", "setting": "[4]; Table 6, read-out: IC50 (μM) DLD-1", "value": 0.85, "unit": "µM"}, {"measurement": "IC50", "setting": "[5]", "value": 2.9, "unit": "µM"}, {"measurement": "IC50", "setting": "[6]", "value": 2.4, "unit": "µM"}, {"measurement": "IC50", "setting": "[7]", "value": 1.4, "unit": "µM"}, {"measurement": "IC50", "setting": "[8]", "value": 0.84, "unit": "µM"}, {"measurement": "proportion of cells expressing NF-kB (p65)", "setting": "NF-kB (p65)", "value": "69.4±12.4", "unit": "%"}, {"measurement": "fatty acid synthetase inhibitory effect", "setting": "fatty acid synthetase", "value": "significant fatty acid synthetase inhibitory effect"}, {"measurement": "proportion of Caspase 3-expressing cells", "setting": "Caspase 3", "value": "57.4±2.6", "unit": "%"}, {"measurement": "time for which the blood concentration is maintained", "setting": "[9]", "value": 3, "unit": "h"}, {"measurement": "time after which GO-Y199 disappeared from the blood", "setting": "[9]; serum HPLC", "value": 180, "unit": "min"}, {"measurement": "time until which the blood concentration rapidly decreased", "setting": "[9]; serum HPLC", "value": 60, "unit": "min"}]}
